# Test results taken from patent publication US20060153844A1, “Methods to trigger, maintain and manipulate immune responses by targeted administration of biological response modifiers into lymphoid organs” (priority 2004, published 2006).
# “Also recorded” adds a separate entry of the source.
# Experiments:
# [1] = tested on: EL-4 target cells pulsed with the ovalbumin peptide epitope; experiment: direct ex vivo CTL activity, 51Cr-release assay after OVA plus CpG; assay type: in vivo, C57BL/6 mice; details: seven days later
# Procedure: The optimal intralymphatic dose of CpG for CTL induction was evaluated and compared to the optimal subcutaneous dose. C57BL/6 mice were injected with OVA alone or in combination with CpG ODN 1668pt. CD8 T cell responses were tested for direct ex vivo CTL activity seven days later using ^51Cr-release assays on EL-4 target cells pulsed with the ovalbumin peptide epitope (SEQ. ID. No. 2) at various effector to target cell ratios. Two dilution series of effector cells per mouse were performed. The means±SEM (n=3) are shown (see FIG. 4). […] The CTL activity was correlated with the frequency of CD8 lymphocytes staining positive for intracellular IFN-γ as measured by flow cytometry (data not shown).
# [2] = tested on: PLA2-specific IgG; experiment: PLA2-specific IgG by ELISA after PLA2 plus titrated CpG; assay type: in vivo, CBA/J mice
# Procedure: The doses of CpG required to enhance Th1-dependent IgG immune responses against an allergen, and whether intralymphatic administration could reduce the required dose of CpG were evaluated. PLA2, the major allergen from bee venom, was used as a model allergen. CBA/J mice were immunized biweekly with […] ODN-1668pt together with 0.1 μg of PLA2 either intralymphatically (A) or subcutaneously (B). Three weeks after the third injection, sera of mice were collected and PLA2-specific IgG was determined by ELISA (FIG. 9). Values represent means and standard deviations obtained from three mice per group. One representative of two similar experiments is shown.
# [3] = tested on: DCs; experiment: activation of lymph node DCs, up-regulation of CD80 and CD86 (flow cytometry); assay type: in vivo, C57BL/6 mice
# Procedure: To assess CpG-induced activation of professional APCs, C57BL/6 mice received titrated amounts of CpG ODN 1668pt either subcutaneously by injection into the inguinal region or by direct injection into the inguinal lymph node. After one day the inguinal lymph nodes were collected and DCs were isolated by Collagenase D digestion and positive isolation using anti-CD11c magnetic beads. Activation of DCs was assessed by measuring up-regulation of CD80 and CD86 (FIGS. 3A and B). Values represent the mean fluorescence intensity (MFI) measured by flow cytometry. As control, mice were immunized i.ln. with saline solution. Lymph node cells pooled from three mice per group were used for the analysis. At least 1.5×10^4 CD11c^+ cells were acquired per condition. […] Note that an intralymphatic control injection with saline induced slight upregulation of CD80 and CD86. This may be explained by the physical lymph node damage produced by the needle. Thus, although both sites of injection are very close to each other, direct intralymphatic administration reduced the dose of CpG that is necessary for DC maturation by 10-50 fold.
# [4] = tested on: splenocyte; details: mouse, in vivo, sc
# Procedure: C57BL/6 mice were treated with different doses of CpG and euthanized 8 days later for analysis of the spleen. […] The means±SEM (n=3) are shown. […] The means±SEM (n=3) are shown.
# [5] = tested on: PLA2-specific IgG2a and IgG1 antibodies; experiment: anti-PLA2 IgG2a, IgG1 and IgE in sera after intralymphatic PLA2 plus TLR ligand; assay type: in vivo, CBA/J mice; details: for kinetics of the antibody production (time of maximum titers): i.ln. with 0.1 μg PLA2, sera over 13 weeks; for anti-PLA2 antibody isotypes induced (IgG2a, IgG1): i.ln. with 0.1 μg PLA2, three injections; for sero-conversion: seven weeks after the first and three weeks after last injection, i.ln. with 0.1 μg PLA2
# Procedure: The compounds were mixed within an hour before injection into the inguinal lymph node.
# The sera were obtained over 13 weeks and analyzed by ELISA for anti-PLA2 IgG2a (FIG. 10A) and IgG1 (FIG. 10B). The ratio of IgG2a to IgG1 titers was calculated as a measure for Th1/Th2 immune response balance (FIG. 10C). […] Pre-immunization levels of anti-PLA2 antibodies were measured on sera from five mice taken the day before first injection.
# [6] = tested on: CD4 or CD8 positive lymphocytes; experiment: intracellular IFN-γ in spleen CD4 and CD8 T cells by flow cytometry; assay type: in vivo, CBA/J mice; details: two weeks after further boost of PLA2 and adjuvant; percentage and absolute number
# Procedure: Two weeks later spleen cells were isolated, and analysed directly for intracellular IFN-γ by flow cytometry (FIG. 11) or analyzed for IFN-γ, IL-4 and IL-10 secretion by ELISA after four days cultivation with 10 μg/ml PLA2 (FIG. 12). For FIG. 11, intracellular IFN-γ was measured by flow cytometry after four hours stimulation of cells with PdBu and ionomycin (both at 500 ng/ml) in the presence of brefeldin A (10 μg/ml). The cells were then incubated with anti-CD16/CD32 for Fc-recptor blocking and stained on ice and in PBS/FCS 2% with fluorescent-labelled Abs against CD4, CD8 and CD44 (all Abs from BD Biosciences (Franklin Lakes, N.J.). Cells were subsequently fixed with 4% paraformaldehyde and permeabilised with 0.1% Nonidet P-40 before staining with Ab against IFN-γ. Four-color cytometry were performed on a FACSCalibur flow cytometer (BD Biosciences, San Jose, Calif.). Cells were gated on CD4 or CD8 positive lymphocytes and the results expressed as means (±S.D.) for three mice, as percent of T-cell subset (A) or as absolute numbers in the spleen (B). One representative out of two immunization experiments is shown. […] Supernatants were collected after 96 hours incubation and IL-4, IL-10 and IFN-γ concentrations determined by ELISA from R&D Systems (Abingdon, United Kingdom). […]
# [7] = tested on: splenocytes; experiment: IFN-γ, IL-4 and IL-10 secretion of splenocytes cultured with PLA2 (ELISA); assay type: in vivo, CBA/J mice; details: for IFN-γ secreted (ELISA): versus LPS or 3M003 P<0.01
# Procedure: Two weeks later spleen cells were isolated, and analysed directly for intracellular IFN-γ by flow cytometry (FIG. 11) or analyzed for IFN-γ, IL-4 and IL-10 secretion by ELISA after four days cultivation with 10 μg/ml PLA2 (FIG. 12). For FIG. 11, intracellular IFN-γ was measured by flow cytometry after four hours stimulation of cells with PdBu and ionomycin (both at 500 ng/ml) in the presence of brefeldin A (10 μg/ml). The cells were then incubated with anti-CD16/CD32 for Fc-recptor blocking and stained on ice and in PBS/FCS 2% with fluorescent-labelled Abs against CD4, CD8 and CD44 (all Abs from BD Biosciences (Franklin Lakes, N.J.). Cells were subsequently fixed with 4% paraformaldehyde and permeabilised with 0.1% Nonidet P-40 before staining with Ab against IFN-γ. Four-color cytometry were performed on a FACSCalibur flow cytometer (BD Biosciences, San Jose, Calif.). Cells were gated on CD4 or CD8 positive lymphocytes and the results expressed as means (±S.D.) for three mice, as percent of T-cell subset (A) or as absolute numbers in the spleen (B). One representative out of two immunization experiments is shown. For FIG. 12, after homogenisation of spleens and lysis of red blood cells, 5×10^5 splenocytes were cultured with […] PLA2 protein in 200 μl IMDM (Gibco) supplemented with L-glutamine (4 mM), FCS (10%), mercaptoethanol (75 μM), as well as streptomycin and ampicillin. Supernatants were collected after 96 hours incubation and IL-4, IL-10 and IFN-γ concentrations determined by ELISA from R&D Systems (Abingdon, United Kingdom). Cytokine concentrations in supernatants as determined by ELISA after subtraction of spontaneous cytokine secretion was determined upon in vitro stimulation with an irrelevant antigen (ovalbumin). Statistical differences between the different groups were indicated when significant (P<0.01). One representative out of two immunization experiments is shown.
# [8] = of the 17 patients receiving IL-12 in the phase II study; cited from earlier work
# [9] = tested on: CD8+ T cell population; experiment: tetramer and CD8 double staining after intranodal Melan-A peptide plus BRM; assay type: in vivo; details: for immune response by tetramer staining: intranodal Melan-A peptide alone, plus 0.1 nmole CpG ODN or plus 25 μg polyI:C, days 0, 3, 14 and 17
# Description: H-2 class I-negative, HLA-A2.1-transgenic (HHD-1) mice (Pascolo, S., et al., J Exp Med. 185:2043-2051, 1997 (which is incorporated herein in its entirety)) were housed under pathogen-free conditions and used for evaluation of the immunogenicity of HLA-A2.1-restricted human tumor-associated cytotoxic T lymphocyte (CTL) epitopes. Female mice 8-12 weeks of age were used for intralymphatic immunization and for isolation of splenocytes for in vivo cytotoxicity studies. […] A total of four rounds of injections were given, on days 0, 3, 14 and 17.
# The immune response was measured by tetramer and CD8 double staining of splenocytes from the immunized mice. Mononuclear cells isolated from peripheral blood after density centrifugation (Lympholyte Mammal, Cedarlane Labs) with HLA-A*0201 MART1 (SEQ. ID. No. 3)-PE MHC tetramer (Beckman Coulter) and FITC conjugated rat anti-mouse CD8a (Ly-2) monoclonal antibody (BD Biosciences). Data was collected using a BD FACS Calibur flow cytometer and analysed using Cellquest software by gating on the lymphocyte population and calculating the percent of tetramer^+ cells within the CD8^+ CTL population. The results (see FIG. 5) were expressed as means±SEM of % tetramer stained cells within the CD8+ T cell population (A), and with specific dot plot plots representative for each group (B). Splenocytes from naive transgenic mice were included as controls.
# [10] = tested on: ^51Cr-labeled target cells (T2 cells); experiment: standard cytotoxic assay after intranodal peptide plus polyI:C; assay type: in vivo, HHD-A2 transgenic mice; details: 12.5 μg peptide+12.5 μg polyI:C per inguinal lymph node, day 0, 3, 14 and 17; targets pulsed with peptide or tumor cells
# Procedure: HHD-A2 transgenic mice (n=4/group) were immunized with various peptides (see Table 1) admixed with polyI:C, by direct inoculation into the inguinal lymph nodes (12.5 μg peptide+12.5 μg of adjuvant, in 25 μl of PBS/each inguinal lymph node at day 0, 3, 14 and 17). One week after the final administration, splenocytes were stimulated ex vivo with 10 μg/ml of peptide in presence of 5 U/ml of rIL-2 and tested in a standard cytotoxic assay, against ^51Cr-labeled target cells (T2 cells) uncoated or coated with cognate peptide, at various Effector:Target ratios. Alternatively, in the case of PSMA 288-297 epitope, cytotoxicity was measured against PSMA expressing human tumor cells (LNCap) cells coated or not with 10 μg/ml of MHC class I blocking antibody (W6/32). Cytotoxicity resulting from immunization with the NY-ESO-1 157-165 epitope was also assessed against 624.28 and 624.38 cells that had been transformed to express a GFP/NY-ESO-1 fusion protein.
# [11] = tested on: Human melanoma tumor target cells, 624.38 (Melan-A^+, HLA-A2^+); experiment: in vivo clearance of human melanoma tumor cells from pulmonary tissue; design: species or system HHD-1 mice; details: mice immunized intranodally as in Example 4, challenged i.v. with 624.38 cells
# Procedure: The effectiveness of CTL generated as described in Example 4 was assessed as in vivo clearance of tumor cells from pulmonary tissue in mice challenged with Melan-A^+ tumor cells. Human melanoma tumor target cells, 624.38 (Melan-A^+, HLA-A2^+) were cultured in RPMI medium supplemented with 10% fetal bovine serum (Hyclone), 0.1 mM non-essential amino acids, and 0.3 mg/mL L-glutamine in a 5% CO2 incubator at 37° C. The HLA-A2^− subclone, 624.28, was grown under the same conditions and served as a negative control. Specific targets were prepared by incubating 10^8 624.38 cells with 2.5 μM CFSE in PBS for 20 minutes (CFSE^hi) and 10^8 HLA-A2^−, 624.28 target controls were labelled with 0.25 μM CFSE (CFSE^lo). Each immunized HHD-1 mouse was intravenously injected in the tail vein with a mixture of 10^7 CFSE^hi 624.38 and 10^7 CFSE^lo 624.28 cells followed by an identical injection 3 hours later. Un-immunized HHD-1 mice were also injected and served as naïve controls. […] The mononuclear cells were then isolated by density centrifugation and CFSE positive cells were analysed by FACS. The in vivo specific lysis of human melanoma target cells in the lung was calculated by the following formula: [(1−% CFSE^hi/% CFSE^lo)−(1−% CFSE^hiControl/% CFSE^loControl)]
substance,measurement,setting,value
"CpG ODN 1668pt: CpG ODN 1668pt (SEQ. ID. No. 1), unmethylated CpG oligodeoxynucleotide, TLR9 ligand (DNA TCCATGACGTTCCTGAATAAT; DNA, backbone not given here)",CTL activity,[1]; subcutaneous vaccination with OVA plus CpG,did not elicit CTL activity
same,CTL activity,[1]; vaccinated intralymphatically with OVA plus CpG,significant induction of cytotoxic CD8 T cells even at 0.01 nmol CpG
same,PLA2-specific antibody responses,"[2]; intralymphatic, high CpG dose of 10 nmol",no antibody responses were detectable
same,PLA2-specific antibody titers,"[2]; intralymphatic, low CpG doses of 0.1 and 0.01 nmol",highest antibody titers
same,"PLA2-specific IgG, adjuvant effect","[2]; subcutaneously, CpG 0.1 and 0.01 nmol",an adjuvant effect was no longer detectable
same,PLA2-specific IgG titers,"[2]; subcutaneously, CpG doses of 10 and 1 nmol with 0.1 μg PLA2",highest IgG titers
same,expression of CD80 and CD86 on DCs,"[3]; 10 and 1 nmol, regardless of the route, after one day",significantly enhanced expression of CD80 and CD86
same,reduction of the dose of CpG necessary for DC maturation,[3]; direct intralymphatic versus subcutaneous administration,10-50 fold
same,DC maturation,"[3]; low CpG doses of 0.1 and 0.01 nmol, i.ln. versus s.c.",only direct injection into the inguinal lymph node induced significant DC maturation
same,changes of B lymphocytes in spleen,[4],Only moderate changes
same,relative amounts of CD4 and CD8 T cells as well as NK cells,[4],substantially reduced in a dose-dependent manner
"CpG: phosphorothioate-modified CpG ODN 1826 (SEQ. ID. No. 10), TLR 9 ligand, Examples 8 and 9 (DNA TCCATGACGTTCCCTGACGTT; DNA, all phosphorothioate, methylation of C not given here)",serum concentration of IgG1 relative to the titers induced by LPS or PolyI:C,"[5]; geometrically, 10 and 13 weeks",30-50%
same,kinetics of the antibody production (time of maximum titers),[5],a delay in the IgG1 antibody production
same,"anti-PLA2 antibody isotypes induced (IgG2a, IgG1)",[5],induced IgG2a
same,IgG1 in seven-week sera,[5]; seven weeks after initiating immunization,hardly detectable
same,sero-conversion,[5],notable sero-conversion
same,IFN-γ producing CD8-positive and CD4-positive T cells,[6],strongest effect
same,IL-4 secretion,[7]; compared with 3M003 and PolyI:C (P<0.01) or LPS (P<0.05),significantly reduced IL-4 secretion
same,IL-10 production,[7]; splenocytes cultured with PLA2,the strongest IL-10 production
same,IFN-γ secreted (ELISA),[7]; splenocytes cultured with PLA2,highest amounts of IFN-γ
IL-12: co-stimulatory cytokine,patients died,[8],2 patients
same,patients hospitalized,[8],12 patients
"Melan-A peptide: Melan-A peptide (SEQ. ID. No. 3), A27L analogue of the A2-restricted Melan-A 26-35 epitope",immune response by tetramer staining,[9],readily detectable response by tetramer staining; also recorded: not very effective in inducing a robust T cell population expansion
peptidoglycan,kinetics of the antibody production (time of maximum titers),[5],peak titers were delayed
same,"anti-PLA2 antibody isotypes induced (IgG2a, IgG1)",[5],induced predominantly IgG2a
polyriboinosinic polyribocytidylic acid [polyI:C],cytotoxic response,[10],triggered a specific cytotoxic response
same,immune response by tetramer staining,[9],robust antigen specific response
same,"systemic acute phase reaction, mortality or morbidity at the dose used","[9]; intranodal, 0.1 nmole CpG ODN or 25 μg polyI:C",not associated with observed mortality or morbidity
same,kinetics of the antibody production (time of maximum titers),[5],maximum levels of antibodies within three weeks of the final boost injection
same,"anti-PLA2 antibody isotypes induced (IgG2a, IgG1)",[5],high antibodies titers of both IgG1 and IgG2a isotypes
same,sero-conversion,[5],notable sero-conversion
same,in vivo lysis of human melanoma target cells in the lung,[11],substantial lytic activity
same,IFN-γ secreted (ELISA),[7]; splenocytes cultured with PLA2,highest amounts of IFN-γ
